Laboratory results published in patent EP2487185A1, “Hexapeptide with improved activity in the repair of cellular DNA of dermal cells” (Clinuvel Pharmaceuticals Limited, priority 2011, dated 2012).
Non-standard residues stand in square brackets, D forms with d. Nle = CCCC[C@H](N)C(=O)O

Tests used:
Type in all cases: cell-based, human
[1] = tested on: melanocytes strain 1513c; assay: cAMP levels (125I radioimmunoassay), dose-response; details: 45 min, 0.1 mM IBMX; for maximal level of cAMP: at 10 nM
Method: Dose-response experiments were carried out on three melanocytic strains, namely strains 1513c, 1505b and 105c melanocytes were treated with 1 pM-10 nM CUV9900 or NDP-MSH, or with 0.1-10 nM MSH for 45 minutes in the presence of 0.1 mM isobutyl methylxanthine (IBMX). The results obtained from strain 1513c are shown in Fig. 3, the results obtained from strain 1505b are shown in Fig. 5a and the results obtained from strain 105c are shown in Fig. 5b. The strains 1505b and 1513c were obtained from the same human adult while the strain 105c was obtained from another human adult. Cyclic AMP is the second messenger for the melanocortin-1 receptor, and assessment is usually performed indicating cellular activity reflective of melanogenesis. Cyclic AMP levels were determined using ^125I-labeled radioimmunoassay kit (Perkin Elmer, Waltham, MA), in human melanocytes that were treated with 0 (control), 0.1-10.0 nM α-MSH, or 0.001-10 nM NDP-MSH or 0.001-10.0 nM CUV 9900 for 45 min. in the presence of 0.1 mM IBMX, a phosphodiesterase inhibitor to prevent cAMP degradation. Triplicate wells were included in each group, and duplicate samples from each well were assayed for cAMP levels. Each data point is the mean percent of control of 6 determinations/group ±S.E.

[2] = tested on: melanocytic strain 10.3c; assay: UV-induced generation of hydrogen peroxide (luminol luminescence); details: 1 nM, 105 mJ/cm^2 UV, 0, 30 and 45 minutes after UV
From the text: With reference to Figs. 10 and 11, melanocytes were irradiated with a bank of FS 20 lamps, with 75% emission in the UVB, and 25% emission in the UVA spectra, with peak emission at 313 nm wavelength. Any emission of UVC rays from the UV source (FS 20 lamps) was blocked by Kodacel filter. Prior to irradiation, the culture medium was replaced by PBS, which was removed after UV exposure, and fresh medium added.
Melanocytes were irradiated with 105 mJ/cm^2 UV, and treated immediately while in PBS with 0, 1 nM α-MSH or 1 nM CUV9900. Generation of hydrogen peroxide, representative of reactive oxygen species (ROS), was determined by measuring the luminescence of luminol at 0, 30, and 45 min after UV exposure. Triplicate dishes were included in each group, and duplicate samples from each dish were used for measurement of hydrogen peroxide at each time point. Each data point represents the mean of 6 determinations/group ±S.E.

[3] = tested on: melanocyte strain 1505b; assay: Cell proliferation as a measure of stability; details: for Cell proliferation, column 2: Table 3, 1nM, column 2, not defined; for Cell proliferation, Mean: Table 3, mean of columns 1-3
[4] = tested on: melanocyte strain 103c; assay: UV-induced apoptosis by Annexin Va staining, flow cytometry; details: 1 nM, 4 days prior and 1 day following 105 mJ/cm^2 UV
Method: With reference to Fig. 12 and 13, melanocytes were maintained for the duration of the experiment in medium lacking bovine pituitary extract (BPE) to determine the survival effect of α-MSH or its analogs in the absence of the anti-apoptotic effect of TPA. Melanocytes were treated with 0, 1 nM α-MSH, 1 µM Forskolin, or 1 nM NDP-MSH or CUV9900 for 4 days prior to, and 24 h after exposure to a dose of 105 mJ/cm^2 UV, then stained for Annexin Va staining. The data are represented as percent increase above control, with triplicate dishes included in each group.
Comparison of the effect of CUV9900, NDP-MSH and MSH on the UV-induced apoptosis were made in the melanocyte strains 103c and melanocyte strain 1513c of Figs. 12 and 13, respectively. Both strains were treated with 1 nM CUV9900, NDP and MSH, respectively for 4 days prior and 1 day following irradiation. Floating as well as attached cells were harvested and stained for Annexin V, and analyzed by flow cytometry.

[5] = tested on: strains 1505b and 1513c; assay: Tyrosinase activity as a measure of stability, overall
Method: (§1) With continued reference to Figs. 7, 8 and 9, to determine the stability of CUV9900 versus that of NDP-MSH and α-MSH, melanocytes were treated with 1 nM of each peptide, namely with CUV9900, NDP-MSH and α-MSH, for a total of 6 days, or with 1 nM peptides that were incubated for 5 hours at 37 °C prior to addition to the cultures, every other day, for a total of 6 days. Tyrosinase activity was measured at the end of treatment. In the experiments, cell number represents the mean percent of control of 3 determinations/ group ±SE, and tyrosinase activity data represent the mean percent of control of 6 determinations ±S.E. It should be noted that for the sake of reproducibility the experiment of strain 1513c of Fig. 9 was performed once more 6 months later than the experiment of Fig. 7.
(§2) Melanocytes were treated for 3 days with the designated concentrations of CUV9900, NDP-MSH, or MSH, then maintained in absence of peptides for 4 days. Tyrosinase activity was determined 3 days after treatment.

[6] = tested on: melanocyte strain 1505b; assay: Tyrosinase activity as a measure of stability / residual effect; details: for Tyrosinase activity, column 1 / Tyrosinase activity, column 2 / Tyrosinase activity, column 3 / Tyrosinase activity, Mean: STRAIN 1505b; for Tyrosinase activity, column 1: Table 6 (Fig. 8), after 3 days of treatment; for Tyrosinase activity, column 1 / Tyrosinase activity, column 2 / Tyrosinase activity, column 3: 1nM; for Tyrosinase activity, column 2 / Tyrosinase activity, column 3 / Tyrosinase activity, Mean: Table 6; for Tyrosinase activity, column 2: column 2, not defined; for Tyrosinase activity, column 3: column 3, apparently 4 days after peptide removal; for Tyrosinase activity, Mean: mean of columns 1-3
Method: To determine the residual effect of CUV9900, as compared to NDP-MSH and α-MSH, on tyrosinase activity, melanocytes were treated with either CUV9900 or NDP-MSH at the concentrations previously described for a total of 3 days. Tyrosinase activity was measured at the end of the 3 days of treatment, and 2 and 4 days after maintenance of the melanocytes in the complete absence of any treatment.
as §1, §2

[7] = tested on: Melanocytes; assay: DNA damage as measured by cyclobutane pyrimidine dimers (CPD), flow cytometry; details: 48 h after 105 mJ/cm^2 UV; 10 nM α-MSH, 1 nM NDP-MSH or 1 nM CUV9900, 4 days prior to and 2 days after UV
Method: Cyclobutane pyrimidine dimers (CPD), the major determinant of UV induced DNA photoproducts, were detected using flow cytometry analysis.
Melanocytes were pretreated with 0 (control), 10 nM α-MSH or 1 nM NDP-MSH or 1 nM CUV9900 for 4 days prior to, and 2 days after exposure to 105 mJ/cm^2 UV, harvested 48 hours post irradiation, fixated with 70% ethanol, the DNA denatured with 1N HCl/0.2 mg/ml pepsin, then renaturated with sodium tetraborate. Melanocytes were blocked and incubated overnight at 4°C with the anti-CPD antibody (diluted 1:500; TDM-2 clone), then with goat anti-mouse IgG Alexa Fluor 488 (Invitrogen, Carlsbad CA) for 1 hour, and finally resuspended in PBS containing RNase A and propidium iodide. Melanocytes were analyzed on a Coulter EPICS XL flow cytometer (Beckman Coulter) using a 488nm argon ion laser A 525 band pass filter was used for the Alexa fluor 488 and a 620 band pass filter for the propidium iodide.

Row | superior tyrosinase activity in comparison to MSH [5] [%] | superior tyrosinase activity in comparison to NDP-MSH [5] [%] | Tyrosinase activity, column 1 [6] | Tyrosinase activity, column 2 [6] | Tyrosinase activity, column 3 [6] | Tyrosinase activity, Mean [6] | effect on tyrosinase activity after 3 days of treatment ([6]; strain 1505b, 0.1 nM CUV9900, 1 nM MSH) | residual effects 4 days after peptide removal, comparison with MSH ([6]; strain 1505b, 0.1 nM CUV9900 vs 1 nM MSH) | Substance | cAMP, potency comparison ([1]; at 0.1 nM) | maximal level of cAMP [1] | UV-induced hydrogen peroxide generation [2] | Cell proliferation, column 2 [3] | Cell proliferation, Mean [3] | anti-apoptotic effect (UV-induced apoptosis, Annexin V) [4] | Absolute values of CPD products (CPD median fluorescence intensity) [7]
1 | 42.5 | 19.8 | 259 % of control | 199 % of control | 126 % of control | 194.7 % of control | 259 % of control | equal | Ac-Nle-Glu His-D-Phe-Arg-Trp-NH2 (Ac-[Nle]EH[dF]RW-NH2; SMILES CCCC[C@H](NC(C)=O)C(=O)N[C@@H](CCC(=O)O)C(=O)N[C@@H](Cc1c[nH]cn1)C(=O)N[C@H](Cc1ccccc1)C(=O)N[C@@H](CCCNC(=N)N)C(=O)N[C@@H](Cc1c[nH]c2ccccc12)C(N)=O) [CUV9900, hexapeptide, alpha-MSH analogue] | more potent than NDP-MSH | higher maximal level of cAMP than MSH | significant reduction of UV-induced hydrogen peroxide generation | 120 % of control | 115.7 % of control | equal anti-apoptotic effect than NDP-MSH | ~11.55
2 |  |  | 175 % of control | 155 % of control | 115 % of control | 148.3 % of control |  |  | Ac-Ser-Tyr-Ser-Nle-Glu-His-D-Phe-Arg-Trp-Gly-Lys-Pro-Val-NH2 [NDP-MSH, reference compound] |  | higher maximal level of cAMP than MSH |  | 105 % of control | 105.0 % of control |  | ~12.5
